Laboratory results as given in patent US9914730B2, “Azaquinazoline inhibitors of Atypical protein Kinase C” (Ignyta, Inc., priority 2012, dated 2018).

Target: T1, full-length human PKCι (Homo sapiens, UniProt P41743)
T1 construct: Recombinant, full-length human PKCι expressed in Sf21 insect cells is also commercially available; purchased; host or cells: Sf21 insect cells
T1 sequence (P41743 1-596): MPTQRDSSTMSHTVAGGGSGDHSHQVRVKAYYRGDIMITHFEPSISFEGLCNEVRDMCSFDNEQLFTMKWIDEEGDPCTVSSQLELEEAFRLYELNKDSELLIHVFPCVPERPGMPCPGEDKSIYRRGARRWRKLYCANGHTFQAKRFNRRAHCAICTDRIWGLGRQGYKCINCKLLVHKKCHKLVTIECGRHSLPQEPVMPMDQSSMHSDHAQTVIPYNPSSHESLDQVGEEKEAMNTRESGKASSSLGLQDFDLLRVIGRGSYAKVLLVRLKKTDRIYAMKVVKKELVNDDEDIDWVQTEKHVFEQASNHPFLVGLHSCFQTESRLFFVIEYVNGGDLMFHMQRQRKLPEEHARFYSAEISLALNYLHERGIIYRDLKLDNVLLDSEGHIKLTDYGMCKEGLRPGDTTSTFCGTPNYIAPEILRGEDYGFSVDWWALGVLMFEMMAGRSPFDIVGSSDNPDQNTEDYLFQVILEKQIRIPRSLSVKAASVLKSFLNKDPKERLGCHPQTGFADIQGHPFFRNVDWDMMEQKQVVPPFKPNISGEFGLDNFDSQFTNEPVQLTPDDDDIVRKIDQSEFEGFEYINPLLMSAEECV
Assay: PKCι IC50 IMAP assay, full-length PKCι at 150 μM ATP
Assay type: biochemical
Details: read-out: IC50 in IMAP assay against full length PKCi at 150 μM ATP
Method in brief: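 Recombinant full-length human PKCι (Sf21-expressed, typically 15 pM) phosphorylated 100 nM 5FAM-labelled PKCε pseudosubstrate-derived peptide with 150 μM ATP (5× KM^APP) in 18 mM tris-HCl pH7.5, 9 mM MgCl2, EGTA, DTT, 4% DMSO. After 60 min at room temperature, IMAP binding reagent was added for 2 h and fluorescence polarisation read.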

IC50 [nM] | Compound
10000 to 40000 | O=S1(=O)CCN(c2nc(-c3ccnc4[nH]c(C(F)(F)F)cc34)nc3cncc(C4CC4)c23)CC1 [Example 1245, 5-Cyclopropyl-4-(1,1-dioxo-1λ^6-thiomorpholin-4-yl)-2-(2-trifluoromethyl-1H-pyrrolo[2,3-b]pyridin-4-yl)-pyrido[3,4-d]pyrimidine]
100 to 1000 | CN(C)C(=O)C1CCN(c2nc(-c3ccnc(Nc4c(F)cccc4F)c3)nc3cncc(C4CC4)c23)CC1 [Example 686, 1-{5-Cyclopropyl-2-[2-(2,6-difluoro-phenylamino)-pyridin-4-yl]-pyrido[3,4-d]pyrimidin-4-yl}-piperidine-4-carboxylic acid dimethylamide]
100 to 1000 | CN(C)CCCCNc1nc(-c2ccnc(Nc3c(F)cccc3F)c2)nc2cncc(C3CC3)c12 [Example 803, N-{5-Cyclopropyl-2-[2-(2,6-difluoro-phenylamino)-pyridin-4-yl]-pyrido[3,4-d]pyrimidin-4-yl}-N′,N′-dimethyl-butane-1,4-diamine]
< 100 | O=C(Cc1c(F)cccc1F)Nc1cc(-c2nc(N3CCNCC3)c3c(C4CC4)cncc3n2)ccn1 [Example 639, N-[4-(5-Cyclopropyl-4-piperazin-1-yl-pyrido[3,4-d]pyrimidin-2-yl)-pyridin-2-yl]-2-(2,6-difluoro-phenyl)-acetamide]
1000 to 10000 | COc1cncc2nc(-c3ccnc(Nc4ccccc4)c3)nc(N3CC(CO)C3)c12 [Example 433, {1-[5-Methoxy-2-(2-phenylamino-pyridin-4-yl)-pyrido[3,4-d]pyrimidin-4-yl]-azetidin-3-yl}-methanol]
< 100 | COc1cncc2nc(-c3ccnc(Nc4ccc(C)nc4)c3)nc(N3CCNCC3)c12 [Example 393, [4-(5-Methoxy-4-piperazin-1-yl-pyrido[3,4-d]pyrimidin-2-yl)-pyridin-2-yl]-(6-methyl-pyridin-3-yl)-amine]
100 to 1000 | NC1CCN(c2nc(-c3ccnc(Nc4c(F)cccc4F)c3)nc3cncc(C4CC4)c23)C1 (stereo not drawn) [Example 708, {4-[4-(3-Amino-pyrrolidin-1-yl)-5-cyclopropyl-pyrido[3,4-d]pyrimidin-2-yl]-pyridin-2-yl}-(2,6-difluoro-phenyl)-amine]
100 to 1000 | COc1cncc2nc(-c3ccnc(Nc4cc(C#N)ccc4F)c3)nc(N3CCNCC3)c12 [Example 420, 4-Fluoro-3-[4-(5-methoxy-4-piperazin-1-yl-pyrido[3,4-d]pyrimidin-2-yl)-pyridin-2-ylamino]-benzonitrile]
< 100 | CN1CCN(c2cccc(Nc3cc(-c4nc(N5CCC(O)C(O)C5)c5c(C6CC6)cncc5n4)ccn3)c2)CC1 (single isomer, unassigned) [Example 752, (3R,4S or 3R,4S)-1-(5-Cyclopropyl-2-{2-[3-(4-methyl-piperazin-1-yl)-phenylamino]-pyridin-4-yl}-pyrido[3,4-d]pyrimidin-4-yl)-piperidine-3,4-diol]
100 to 1000 | Fc1cccc(F)c1Nc1cc(-c2nc(NC[C@@H]3CCCN3)c3c(C4CC4)cncc3n2)ccn1 [Example 698, {5-Cyclopropyl-2-[2-(2,6-difluoro-phenylamino)-pyridin-4-yl]-pyrido[3,4-d]pyrimidin-4-yl}-(S)-1-pyrrolidin-2-ylmethyl-amine]
< 100 | CN1CCN(c2cccc(Nc3cc(-c4nc(N5CCC[C@@H](O)C5)c5c(C6CC6)cncc5n4)ccn3)c2)CC1 [Example 720, (R)-1-(5-Cyclopropyl-2-{2-[3-(4-methyl-piperazin-1-yl)-phenylamino]-pyridin-4-yl}-pyrido[3,4-d]pyrimidin-4-yl)-piperidin-3-ol]
< 100 | C[C@H]1CN(c2nc(-c3ccnc(Nc4nc(F)c(F)cc4F)c3)nc3cncc(C4CCC4)c23)CCN1 [Example 808, {4-[5-Cyclobutyl-4-((S)-3-methyl-piperazin-1-yl)-pyrido[3,4-d]pyrimidin-2-yl]-pyridin-2-yl}-(3,5,6-trifluoro-pyridin-2-yl)-amine]
100 to 1000 | Fc1cccc(F)c1Nc1cc(-c2nc(N3CCNCC3)c3c(C4CC4)cnc(C4CC4)c3n2)ccn1 [Example 2189, [4-(5,8-Dicyclopropyl-4-piperazin-1-yl-pyrido[3,4-d]pyrimidin-2-yl)-pyridin-2 yl]-(2,6-difluoro-phenyl)-amine]
10000 to 40000 | NCCNc1nc(-c2ccncc2)nc2cnccc12 [Example 3, N-(2-aminoethyl)-2-(pyridin-4-yl)-pyrido[3,4-d]-pyrimidin-4-amine]
100 to 1000 | Clc1nccc2c(N3CCN[C@@H](Cc4ccccc4)C3)nc(-c3ccncc3)nc12 [Example 68, (3S)-3-benzyl-1-[8-chloro-2-(pyridin-4-yl)pyrido[3,4-d]-pyrimidin-4-yl]-piperazine]
< 100 | Fc1ccc(C2CC2)cc1Nc1cc(-c2nc(N3CCNCC3)c3c(C4CC4)cncc3n2)ccn1 [Example 667, (5-Cyclopropyl-2-fluoro-phenyl)-[4-(5-cyclopropyl-4-piperazin-1-yl-pyrido[3,4-d]pyrimidin-2-yl)-pyridin-2-yl]-amine]
10000 to 40000 | CC(C)(C)OC(=O)N1CCCN(c2nc(-c3ccncc3)nc3cnccc23)CC1 [Example 23, tert-butyl 4-[2-(pyridin-4-yl)-pyrido[3,4-d]pyrimidin-4-yl]-1,4-diazepane-1-carboxylate]
< 100 | Cc1ccc(Nc2cc(-c3nc(N4CCNCC4)c4c(C5CC5)cncc4n3)ccn2)cn1 [Example 546, [4-(5-Cyclopropyl-4-piperazin-1-yl-pyrido[3,4-d]pyrimidin-2-yl)-pyridin-2-yl]-(6-methyl-pyridin-3-yl)-amine]
100 to 1000 | FC(F)(F)CC1CN(c2nc(-c3ccnc(Cl)c3)nc3cncc(C4CC4)c23)CCN1 (stereo not drawn) [Example 615, 2-(2-Chloro-pyridin-4-yl)-5-cyclopropyl-4-[3-(2,2,2-trifluoro-ethyl)-piperazin-1-yl]-pyrido[3,4-d]pyrimidine]
100 to 1000 | O=C(Nc1cc(-c2nc(N[C@@H]3CCNC3)c3ccncc3n2)ccn1)c1cnccn1 [Example 307, Pyrazine-2-carboxylic acid {4-[4-((R)-pyrrolidin-3-ylamino)-pyrido[3,4-d]pyrimidin-2-yl]-pyridin-2-yl}-amide]
< 100 | Cc1ccc(Nc2cc(-c3nc(N4CCNCC4)c4c(C5CC5)cncc4n3)ccn2)c(F)c1 [Example 575, [4-(5-Cyclopropyl-4-piperazin-1-yl-pyrido[3,4-d]pyrimidin-2-yl)-pyridin-2-yl]-(2-fluoro-4-methyl-phenyl)-amine]
100 to 1000 | c1cc(-c2nc(N3CCNCC3)c3c(C4CC4)cncc3n2)c2c3c([nH]c2n1)CCCC3 [Example 2208, 4-(5-Cyclopropyl-4-piperazin-1-yl-pyrido[3,4-d]pyrimidin-2-yl)-6,7,8,9-telrahydro-5H-pyrido[2,3-b]indole]
< 100 | FC(F)(F)c1cc2c(-c3nc(SC4CCNCC4)c4c(C5CC5)cncc4n3)ccnc2[nH]1 [Example 2134, 5-Cyclopropyl-4-(piperidin-4-ylsulfanyl)-2-(2-trifluoromethyl-1H-pyrrolo[2,3-b]pyridin-4-yl)-pyrido[3,4-d]pyrimidine]
100 to 1000 | O=C(NCCO)C1CCN(c2nc(-c3ccnc(Nc4c(F)cccc4F)c3)nc3cncc(C4CC4)c23)CC1 [Example 685, 1-{5-Cyclopropyl-2-[2-(2,6-difluoro-phenylamino)-pyridin-4-yl]-pyrido[3,4-d]pyrimidin-4-yl}-piperidine-4-carboxylic acid (2-hydroxy-ethyl)-amide]
1000 to 10000 | c1cc(-c2nc(N3CCCNCC3)c3ccncc3n2)ccn1 [Example 33, 1-[2-(pyridin-4-yl)-pyrido[3,4-d]-pyrimidin-4-yl]-1,4-diazepane]
1000 to 10000 | N[C@H](CNc1nc(-c2ccncc2)nc2c(Nc3ncccn3)nccc12)Cc1ccccc1 [Example 124, 4-N-[(2S)-2-amino-3-phenylpropyl]-2-(pyridin-4-yl)-8-N-(pyrimidin-2-yl)pyrido[3,4-d]pyrimidine-4,8-diamine]
100 to 1000 | FC(F)(F)C(Nc1cc(-c2nc(N3CCNCC3)c3c(C4CC4)cncc3n2)ccn1)c1ccccc1 (stereo not drawn) [Example 706, [4-(5-Cyclopropyl-4-piperazin-1-yl-pyrido[3,4-d]pyrimidin-2-yl)-pyridin-2-yl]-(2,2,2-trifluoro-1-phenyl-ethyl)-amine]
< 100 | OC1CCN(c2nc(-c3ccnc4[nH]c(C(F)(F)F)cc34)nc3cncc(C4CC4)c23)CC1 [Example 1239, 1-[5-Cyclopropyl-2-(2-trifluoromethyl-1H-pyrrolo[2,3-b]pyridin-4-yl)-pyrido[3,4-d]pyrimidin-4-yl]-piperidin-4-ol]
< 100 | Cc1cccc(Cl)c1Nc1cc(-c2nc(N3CCNCC3)c3c(C4CC4)cncc3n2)ccn1 [Example 527, (2-Chloro-6-methyl-phenyl)-[4-(5-cyclopropyl-4-piperazin-1-yl-pyrido[3,4-d]pyrimidin-2-yl)-pyridin-2-yl]-amine]
1000 to 10000 | COC[C@H]1CN(c2nc(N3CCOCC3)nc3cncc(OC)c23)CCN1 [Example 1009, 5-Methoxy-4-((R)-3-methoxymethyl-piperazin-1-yl)-2-morpholin-4-yl-pyrido[3,4-d]pyrimidine]
